Drawing on article PMC8636556, “Cloning, expression, purification and characterization of chitin deacetylase extremozyme from halophilic Bacillus aryabhattai B8W22” (3 Biotech, 2021), this text covers activity for 1 molecule.

This assay concerns the target T1, BaCDA (Priestia aryabhattai, UniProt A0A7W3NGR0).
T1 construct: gene HNP21_005748
As to the kind of experiment: biochemical. The note with it: read-out: Relative activity (%) / Ethylene glycol chitin.

T1 sequence (A0A7W3NGR0 1-254): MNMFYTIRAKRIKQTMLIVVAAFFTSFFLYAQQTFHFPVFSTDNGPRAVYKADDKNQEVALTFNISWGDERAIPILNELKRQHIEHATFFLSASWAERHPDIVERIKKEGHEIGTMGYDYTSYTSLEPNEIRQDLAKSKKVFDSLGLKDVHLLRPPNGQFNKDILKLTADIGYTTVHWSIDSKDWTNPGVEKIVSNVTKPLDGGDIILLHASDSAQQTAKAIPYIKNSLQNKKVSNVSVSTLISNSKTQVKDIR

`CC(=O)O` [acetate]: the activity at 10000 µM is 49.9 ± 3.89%.
